In one test the target is T1, human LPA3 (Homo sapiens, UniProt Q9UBY5).
T1 construct: The full-length cDNA fragment for human LPA3 was obtained by PCR from the vector; expressed in transfected cells; cDNA from the Missouri S&T cDNA Resource Center
T1 sequence (Q9UBY5 1-353): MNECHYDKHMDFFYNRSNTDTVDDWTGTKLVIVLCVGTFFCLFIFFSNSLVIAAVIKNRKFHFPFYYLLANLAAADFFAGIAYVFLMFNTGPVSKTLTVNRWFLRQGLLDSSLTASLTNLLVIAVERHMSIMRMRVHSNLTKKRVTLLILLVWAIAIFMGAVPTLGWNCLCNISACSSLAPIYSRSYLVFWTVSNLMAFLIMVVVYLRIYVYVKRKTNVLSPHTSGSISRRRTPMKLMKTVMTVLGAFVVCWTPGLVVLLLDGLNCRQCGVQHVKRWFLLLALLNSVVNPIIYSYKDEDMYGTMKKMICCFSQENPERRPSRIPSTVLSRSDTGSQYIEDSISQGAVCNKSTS
Briefly: LPA3 calcium flux assay. The format is cell-based. The note with it: Human LPA3 expressing CHO cells, stimulated with 10 nM LPA; read-out: HLPA3 Ca Flux IC50. On the procedure:
A vector containing the human LPA3 receptor cDNA was obtained from the Missouri S&T cDNA Resource Center (www.cdna.org). The full-length cDNA fragment for human LPA3 was obtained by PCR from the vector. The nucleotide sequence of the cloned human LPA3 was determined by sequencing and confirmed to be identical to the published human LPA3 sequence (NCBI accession number NM 012152). The cDNA was cloned into the pcDNA5/FRT expression plasmid and transfected in CHO cells using lipofectamine 2000 (Invitrogen Corp., USA). Clones stably expressing human LPA3 were selected using hygromycin and identified as cells that show Ca-influx in response to LPA.
Human LPA1 or LPA3 expressing CHO cells are seeded at 20,000-45,000 cells per well in a 96-well poly-D-lysine coated plate one or two days before the assay. Prior to the assay, the cells are washed once with PBS and then cultured in serum-free media overnight. On the day of the assay, a calcium indicator dye (Calcium 4, Molecular Devices) in assay buffer (HBSS with Ca^2+ and Mg^2+ and containing 20 mM Hepes and 0.3% fatty-acid free human serum albumin) is added to each well and incubation continued for 1 hour at 37° C. 10 μl of test compounds in 2.5% DMSO are added to the cells and incubation continued at room temperature for 30 minutes. Cells are the stimulated by the addition of 10 nM LPA and intracellular Ca^2+ measured using the Flexstation 3 (Molecular Devices). IC50s are determined using Graphpad prism analysis of drug titration curves.
For orientation: Calcium assays in cells follow changes in intracellular calcium, usually with a dye or a luminescent sensor.

In another test the target is T2, human LPA1 (Homo sapiens, UniProt Q92633).
T2 construct: the full-length cDNA for human LPA1 was obtained by PCR of the reverse transcription reaction; expressed in transfected cells
Briefly: LPA1 calcium flux assay (HLPA1 Ca Flux). The format is cell-based. The note with it: Human LPA1 expressing CHO cells, stimulated with 10 nM LPA. The essentials:
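CHO cells stably expressing cloned human LPA1, serum-starved overnight and loaded with Calcium 4 dye, were preincubated 30 min at room temperature with compound. Cells were then challenged with 10 nM LPA and intracellular Ca2+ measured; IC50 values came from titration curves.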

Some results are limits rather than exact numbers.

By IC50 is commonly meant the midpoint of a concentration-inhibition curve.

T2 sequence (Q92633 whole entry): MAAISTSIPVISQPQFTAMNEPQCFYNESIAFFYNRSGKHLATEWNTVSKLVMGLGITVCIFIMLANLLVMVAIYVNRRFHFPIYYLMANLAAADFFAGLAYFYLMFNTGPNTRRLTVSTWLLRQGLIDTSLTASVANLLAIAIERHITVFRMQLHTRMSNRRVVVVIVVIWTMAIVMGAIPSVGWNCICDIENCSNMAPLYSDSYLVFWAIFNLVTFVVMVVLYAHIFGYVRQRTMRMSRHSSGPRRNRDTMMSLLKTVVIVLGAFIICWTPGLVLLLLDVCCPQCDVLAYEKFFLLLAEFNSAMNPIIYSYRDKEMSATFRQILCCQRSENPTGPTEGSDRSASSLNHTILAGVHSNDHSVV

For the molecule `Cc1noc(-c2cccc(-c3cccc(CC(=O)O)c3)c2)c1NC(=O)OC(C)c1ccccc1Cl` (centres unmarked) [Compound 1-60, (3′-{4-[1-(2-Chloro-phenyl)-ethoxycarbonylamino]-3-methyl-isoxazol-5-yl}-biphenyl-3-yl)-acetic acid], the IC50 on human LPA3 and at human LPA1 was 1 to 50 µM each time.
For `Cc1noc(-c2ccc(-c3ccc(CC(=O)O)cn3)cc2)c1NC(=O)OC(C)c1ccccc1Cl` (centres unmarked) [Compound 1-61, [6-(4-{4-[1-(2-Chloro-phenyl)-ethoxycarbonylamino]-3-methyl-isoxazol-5-yl}-phenyl)-pyridin-3-yl]-acetic acid], the IC50 was 1 to 50 µM on human LPA3 and < 0.3 µM at human LPA1.
On the same counts, the results for `Cc1noc(-c2ccc(-c3ccc(CCC(=O)O)cc3)cc2)c1NC(=O)OC(C)c1ccccc1Cl` (centres unmarked) [Compound 1-62, 3-(4′-{4-[1-(2-Chloro-phenyl)-ethoxycarbonylamino]-3-methyl-isoxazol-5-yl}-biphenyl-4-yl)-propionic acid] are 1 to 50 µM and < 0.3 µM.
For the molecule `Cc1noc(-c2ccc(-c3cncc(CC(=O)O)c3)cc2)c1NC(=O)OC(C)c1ccccc1Cl` (centres unmarked) [Compound 1-63, [5-(4-{4-[1-(2-Chloro-phenyl)-ethoxycarbonylamino]-3-methyl-isoxazol-5-yl}-phenyl)-pyridin-3-yl]-acetic acid], the IC50 on human LPA3 was 1 to 50 µM; on human LPA1, < 0.3 µM.
On the same counts, the results for `Cc1noc(-c2ccc(-c3cc(CC(=O)O)ccc3F)cc2)c1NC(=O)OC(C)c1ccccc1Cl` (centres unmarked) [Compound 1-64, (4′-{4-[1-(2-Chloro-phenyl)-ethoxycarbonylamino]-3-methyl-isoxazol-5-yl}-6-fluoro-biphenyl-3-yl)-acetic acid] are 1 to 50 µM and < 0.3 µM.
On the same counts, the results for `Cc1noc(-c2ccc(-c3ccc(F)c(CC(=O)O)c3)cc2)c1NC(=O)OC(C)c1ccccc1Cl` (centres unmarked) [Compound 1-65, (4′-{4-[1-(2-Chloro-phenyl)-ethoxycarbonylamino]-3-methyl-isoxazol-5-yl}-4-fluoro-biphenyl-3-yl)-acetic acid] are 1 to 50 µM and < 0.3 µM.
With `Cc1noc(-c2ccc(C3=CCC(C(=O)O)CC3)cc2)c1NC(=O)OC(C)c1ccccc1Cl` (centres unmarked) [Compound 1-66, 4-(4-{4-[1-(2-Chloro-phenyl)-ethoxycarbonylamino]-3-methyl-isoxazol-5-yl}-phenyl)-cyclohex-3-enecarboxylic acid], the IC50 was 1 to 50 µM on human LPA3 and < 0.3 µM on human LPA1.
On the same counts, the results for `Cc1noc(-c2ccc(C3CCC(C(=O)O)CC3)cc2)c1NC(=O)OC(C)c1ccccc1Cl` (centres unmarked) [Compound 1-67, 4-(4-{4-[1-(2-Chloro-phenyl)-ethoxycarbonylamino]-3-methyl-isoxazol-5-yl}-phenyl)-cyclohexanecarboxylic acid] are 1 to 50 µM and < 0.3 µM.
On the same counts, the results for `COC(=O)Cc1ccc(-c2ccc(-c3onc(C)c3NC(=O)OC(C)c3ccccc3Cl)cc2)cc1` (centres unmarked) [Compound 1-69, (4′-{4-[1-(2-Chloro-phenyl)-ethoxycarbonylamino]-3-methyl-isoxazol-5-yl}-biphenyl-4-yl)-acetic acid methyl ester] are 1 to 50 µM and < 0.3 µM.
On the same counts, the results for `Cc1noc(-c2ccc(-c3ccc(C(C)C(=O)O)cc3)cc2)c1NC(=O)OC(C)c1ccccc1Cl` (centres unmarked) [Compound 1-71, 2-(4′-{4-[1-(2-Chloro-phenyl)-ethoxycarbonylamino]-3-methyl-isoxazol-5-yl}-biphenyl-4-yl)-propionic acid] are 1 to 50 µM and < 0.3 µM.
Consider `Cc1noc(-c2ccc(-c3ccc(C(C)C(=O)O)cc3)cc2)c1NC(=O)OC(C)c1ccccc1F` (centres unmarked) [Compound 1-74, 2-(4′-{4-[1-(2-Fluoro-phenyl)-ethoxycarbonylamino]-3-methyl-isoxazol-5-yl}-biphenyl-4-yl)-propionic acid], for which the IC50 on human LPA3 was 1 to 50 µM; at human LPA1, < 0.3 µM.
As to `Cc1noc(-c2ccc(-c3cccc(C(=O)O)c3)cc2)c1NC(=O)OC(C)c1ccccc1Cl` (centres unmarked) [Compound 1-76, 4′-{4-[1-(2-Chloro-phenyl)-ethoxycarbonylamino]-3-methyl-isoxazol-5-yl}-biphenyl-3-carboxylic acid], the IC50 on human LPA3 is 1 to 50 µM; on human LPA1, < 0.3 µM.
Consider `Cc1noc(-c2ccc(-c3ccc(CC(=O)O)cc3)cc2)c1NC(=O)OC(C)c1ccc(Cl)cc1F` (centres unmarked) [Compound 1-77, (4′-{4-[1-(4-Chloro-2-fluoro-phenyl)-ethoxycarbonylamino]-3-methyl-isoxazol-5-yl}-biphenyl-4-yl)-acetic acid], for which the IC50 was 1 to 50 µM at human LPA3 and < 0.3 µM on human LPA1.
On the same counts, the results for `Cc1noc(-c2ccc(-c3ccc(CC(=O)O)cc3)cc2)c1NC(=O)O[C@H](C)c1ccccc1F` [Compound 1-78, (4′-{4-[(R)-1-(2-Fluoro-phenyl)-ethoxycarbonylamino]-3-methyl-isoxazol-5-yl}-biphenyl-4-yl)-acetic acid] are 1 to 50 µM and < 0.3 µM.
On the same counts, the results for `Cc1noc(-c2ccc(COc3ccccc3CC(=O)O)cc2)c1NC(=O)OC(C)c1ccccc1Cl` (centres unmarked) [Compound 1-79, [2-(4-{4-[1-(2-Chloro-phenyl)-ethoxycarbonylamino]-3-methyl-isoxazol-5-yl}-benzyloxy)-phenyl]-acetic acid] are 1 to 50 µM and < 0.3 µM.
On the same counts, the results for `Cc1noc(-c2ccc(Cc3cccc(CC(=O)O)c3)cc2)c1NC(=O)O[C@H](C)c1ccccc1F` [Compound 1-80, [3-(4-{4-[(R)-1-(2-Fluoro-phenyl)-ethoxycarbonylamino]-3-methyl-isoxazol-5-yl}-benzyl)-phenyl]acetic acid] are 1 to 50 µM and < 0.3 µM.
On to `Cc1noc(-c2ccc(Cc3ccc(CC(=O)O)cc3)cc2)c1NC(=O)O[C@H](C)c1ccccc1F` [Compound 1-81, [4-(4-{4-[(R)-1-(2-Fluoro-phenyl)-ethoxycarbonylamino]-3-methyl-isoxazol-5-yl}-benzyl)-phenyl]-acetic acid], for which the figures for the IC50 at human LPA3 and at human LPA1 were 1 to 50 µM and < 0.3 µM, respectively.
On the same counts, the results for `Cc1noc(-c2ccc(Oc3ccc(CC(=O)O)cc3)cc2)c1NC(=O)O[C@H](C)c1ccccc1F` [Compound 1-84, [4-(4-{4-[(R)-1-(2-Fluoro-phenyl)-ethoxycarbonylamino]-3-methyl-isoxazol-5-yl}-phenoxy)-phenyl]-acetic acid] are 1 to 50 µM and < 0.3 µM.
For the molecule `Cc1cc(-c2onc(C)c2NC(=O)O[C@H](C)c2ccccc2F)ccc1-c1ccc(CC(=O)O)cc1` [Compound 1-85, (4′-{4-[(R)-1-(2-Fluoro-phenyl)-ethoxycarbonylamino]-3-methyl-isoxazol-5-yl}-2′-methyl-biphenyl-4-yl)-acetic acid], the IC50 on human LPA3 is 1 to 50 µM; on human LPA1 it was < 0.3 µM.
On the same counts, the results for `Cc1noc(-c2ccc(-c3ccc(C(C)(C)C(=O)O)cc3)cc2)c1NC(=O)OC(C)c1ccccc1F` (centres unmarked) [Compound 1-86, 2-(4′-{4-[1-(2-Fluoro-phenyl)-ethoxycarbonylamino]-3-methyl-isoxazol-5-yl}-biphenyl-4-yl)-2-methyl-propionic acid] are 1 to 50 µM and < 0.3 µM.
On the same counts, the results for `Cc1noc(-c2ccc(-c3ccc(C(C)(C)C(=O)O)cn3)cc2)c1NC(=O)OC(C)c1ccccc1F` (centres unmarked) [Compound 1-87, 2-[6-(4-{4-[1-(2-Fluoro-phenyl)-ethoxycarbonylamino]-3-methyl-isoxazol-5-yl}-phenyl)-pyridin-3-yl]-2-methyl-propionic acid] are 1 to 50 µM and < 0.3 µM.
As to `Cc1noc(-c2ccc(-c3ccc(C(C)(C)C(=O)O)cc3)cc2)c1NC(=O)O[C@H](C)c1ccccc1Cl` [Compound 1-89, 2-(4′-{4-[(R)-1-(2-Chloro-phenyl)-ethoxycarbonylamino]-3-methyl-isoxazol-5-yl}-biphenyl-4-yl)-2-methyl-propionic acid], the IC50 was 0.3 to 1 µM at human LPA3 and < 0.3 µM at human LPA1.
